Values quoted from earlier work in patent US20050095265A1, “Process for making larvicidal evaporation suppressant powder” (priority 2002, published 2005).

Columns and labels:
[1] = system: Culex quinquefasciatus
[2] = system: Anopheles gambiae

Structure (SMILES) | larvicidal effect ([1]; film-forming compound on water surface, Culex quinquefasciatus larvae) | effect on larvae of feeding on particles floating on the water surface ([1]; particles on water surface of test units, apparently fed upon by mosquito larvae) | influence on aquatic larvae [2] | mosquito larvae mortality ([1]; as reported by Lorenzen and Meinke)
CCCCCCCCCCCCCCCCO [cetyl alcohol, n-hexadecanol] | no larvicidal effect | no ill effect | no appreciable influence | 
CCCCCCCCCCCCO [lauryl alcohol, dodecanol] |  |  |  | cause mosquito larvae mortality
